What all share (conditions): 50 nM enzyme; BAEE 0.04-0.2 mg/ml; 37°C; native glycosylated enzyme
Experiment [1] deals with RV-FVPα. The class given is biochemical, Daboia russelii.
Experiment [2] deals with RV-FVPγ.
Experiment [3] relates to RV-FVPβ.
For experiment [4], the system named is RV-FVPδ.

In general, Km refers to the substrate concentration at which the rate is half of its maximum.

On to `CCOC(=O)[C@H](CCCNC(=N)N)NC(=O)c1ccccc1` [BAEE], for which the Michaelis constant (Km) is 0.143 mg/mL in experiment [1], 0.159 mg/mL in experiment [2], 0.156 mg/mL in experiment [3] and 0.159 mg/mL in experiment [4].
